Results on two compounds are retold here after patent publication US7897340B2, “Use of tumor susceptibilty gene 101 (TSG 101) as a prognostic and diagnostic marker” (The Board of Regents of the University of Texas System, priority 2006, dated 2011).

Test [1] relates to RAS-GTP. The settings on record: T29H cells, data not shown.
Test [2] deals with TSG101 mRNA. The test is described as follows: TSG101 mRNA levels by semi-quantitative PCR in T29 and T29H cells. The test is classed as cell-based, human. The settings on record: FTI-277 10 μM 24 hours. On the procedure: Total RNA was isolated from cells using Trizol reagent (Invitrogen), and concentration was determined by absorbance at 260 nm. Real-Time PCR analysis was carried out using fluorescent TSG101 primers on an Applied Biosystems Prism 7000 Sequence Detection System. RT-PCR was carried out for TSG101 and HIF-1α using 1 μg of isolated total RNA under the following parameters: 94° C. 1 min, 57° C. 1 min and 72° C. 1.5 min, 35 cycles. Primers used for RT-PCR were TSG10 forward [NT] ID NO: 1), reverse [NT] ID NO: 2), CITED2 forward [NT] ID NO: 3), reverse [NT] ID NO: 4), HIF-1a ? forward [NT] ID NO: 5), reverse [NT] ID NO: 6). […] This up-regulation was further confirmed by immunoblotting analysis of equal amount of independent total protein lysates from pooled T29 and […] cells using an antibody specific to TSG101 (FIG. 1C). To check if the apparent increase in TSG101 protein was due to the transcriptional regulation of the TSG101 gene, the levels of TSG101 mRNA in T29 and […] cells were examined by semiquantitive (FIG. 1D) and real-time PCRs (FIG. 1E). […] Furthermore, the levels of TSG101 mRNA were not affected by FTI-277, a farnesyl transferase inhibitor that blocks the activation of RAS (FIG. 1D).

In test [3] the test system is TSG101. The test is described as follows: TSG101 protein levels by immunoblotting in T29H cells. Conditions: inhibitor pretreatment 24 hrs (FTI-277 10 μM, U0126 20 μM, LY294002 10 μM). The test is classed as cell-based, human. The source says:
Antigen-antibody complexes were detected by enhanced chemiluminescence (Pierce).

Test [4] concerns p14ARF. Conditions: T29H cells.
Method: Protein concentrations of cell lysates were assayed with the Bio-Rad protein assay reagent. Equal amounts of protein were loaded onto 12% SDS polyacrylamide mini-gels (Bio-Rad) or 10% Tricine-SDS gels and transferred to PVDF membranes. PVDF blots and the remaining polyacrylamide gels were stained with Ponceau S and Coomassie Blue, respectively, to ensure equal loading and even transfer of the samples. After being blocked overnight in 5% milk in TBS-Tween, blots were incubated with corresponding primary antibodies for 1.5 hrs, followed by HRP-conjugated secondary antibody (1:4000, Bio-Rad) for 45 min. Antigen-antibody complexes were detected by enhanced chemiluminescence (Pierce).

In the case of `COC(=O)[C@H](CCSC)NC(=O)c1ccc(NC[C@@H](N)CS)cc1-c1ccccc1` [FTI-277], the RAS-GTP levels entry in test [1] is “significantly inhibited”. Besides, the “levels of TSG101 mRNA” value in test [2] is “not affected”. For the same compound, in test [3], the TSG101 protein levels result is listed as “significant decrease”.

Consider `N#CC(=C(/N)Sc1ccccc1N)/C(C#N)=C(\N)Sc1ccccc1N` [U0126], for which the “cellular level of p14ARF” value in test [4] is “suppressed”. In addition, the TSG101 protein levels result in test [3] is “significantly decreased”.
